Consider 32 molecules from paper PMC7587356, “High-Throughput Screening for Inhibitors of the SARS-CoV-2 Protease Using a FRET-Biosensor” (Molecules, 2020).

The assay concerns the target SARS-CoV-2 3CLpro (Severe acute respiratory syndrome coronavirus 2, UniProt P0DTD1). In words: biochemical. Type of assay: biochemical. Also on record: Replicate_1 / Replicate_2 / mean / mean (LOPAC_screen_w_protease): unit not given here. Conditions: for mean (LOPAC screen with protease) / Replicate_1 (LOPAC screen with protease) / Replicate_2 (LOPAC screen with protease): primary screen at 5 µM; for inhibition at 5 µM: 4 h.

The mark [1] stands for this setting: sheet LOPAC_screen_w_protease, LOPAC1280 primary screen at 5 µM, with protease, replicate 1.
[2] abbreviates: sheet LOPAC_screen_w_protease, LOPAC1280 primary screen at 5 µM, with protease, replicate 2.
Setting [3] is: sheet LOPAC_screen_w_protease, mean of two replicates.
[4] abbreviates: sheet LOPAC_screen_w_protease, replicate 1.
The mark [5] stands for this setting: sheet LOPAC_screen_w_protease, replicate 2.
The mark [6] stands for this setting: sheet LOPAC_screen_w_protease, primary screen with protease, mean of two replicates.
Where [7] appears, read: sheet LOPAC_screen_w_protease, primary screen with protease, replicate 1.
Setting [8] is: sheet LOPAC_screen_w_protease, primary screen with protease, replicate 2.
Where [9] appears, read: sheet LOPAC_screen_w_protease, primary screen with protease, 5 µM, mean of two replicates.
Setting [10] is: sheet LOPAC_screen_w_protease, primary screen with protease, 5 µM, replicate 1.
Setting [11] is: sheet LOPAC_screen_w_protease, primary screen with protease, 5 µM, replicate 2.
[12] abbreviates: sheet LOPAC_screen_w_protease, primary screen with protease, 5 µM, mean of two replicates, read-out: mean.
The mark [13] stands for this setting: sheet LOPAC_screen_w_protease, primary screen with protease, 5 µM, replicate 1, read-out: Replicate_1.
Setting [14] is: sheet LOPAC_screen_w_protease, primary screen with protease, 5 µM, replicate 2, read-out: Replicate_2.
Setting [15] is: read-out: Replicate_1 (LOPAC_screen_w_protease).
Setting [16] is: read-out: Replicate_2 (LOPAC_screen_w_protease).
Setting [17] is: sheet LOPAC_screen_w_protease, LOPAC1280 at 5 µM, mean of two replicates, read-out: mean.
Where [18] appears, read: sheet LOPAC_screen_w_protease, LOPAC1280 at 5 µM, replicate 1, read-out: Replicate_1.
[19] abbreviates: sheet LOPAC_screen_w_protease, LOPAC1280 at 5 µM, replicate 2, read-out: Replicate_2.
The mark [20] stands for this setting: sheet LOPAC_screen_w_protease, LOPAC1280 primary screen at 5 µM, with protease, mean of the two replicates, read-out: mean.
Setting [21] is: sheet LOPAC_screen_w_protease, LOPAC1280 primary screen at 5 µM, with protease, replicate 1, read-out: Replicate_1.
Where [22] appears, read: sheet LOPAC_screen_w_protease, LOPAC1280 primary screen at 5 µM, with protease, replicate 2, read-out: Replicate_2.
[23] abbreviates: LOPAC1280 primary screen with protease, 5 µM compound, replicate 1, read-out: Replicate_1 (LOPAC_screen_w_protease).
The mark [24] stands for this setting: LOPAC1280 primary screen with protease, 5 µM compound, replicate 2, read-out: Replicate_2 (LOPAC_screen_w_protease).
[25] abbreviates: LOPAC1280 primary screen with protease, 5 µM compound, mean of the two replicates.
[26] abbreviates: LOPAC1280 primary screen with protease, 5 µM compound, mean of two replicates.

Structures can show the parent of a compound that is named as a salt. Where two headings read alike, the source gives them in different places.

Under “sheet LOPAC_screen_w_protease, LOPAC1280 primary screen at 5 µM, with protease, mean of the two replicates”, `C[C@H](Cc1ccccc1)Nc1ncnc2c1ncn2[C@@H]1O[C@H](CO)[C@@H](O)[C@H]1O` [R(-)-N6-(2-Phenylisopropyl)adenosine] gave a mean of 0.4967. The same molecule gave a Replicate_1 under setting [1] of 2.165. The same molecule returned a Replicate_2 under setting [2] of -1.171.
Take `Br.C=CCN1CCc2cccc3c2[C@H]1Cc1ccc(O)c(O)c1-3` [R(-)-N-Allylnorapomorphine hydrobromide]: under setting [3], the “mean (LOPAC screen with protease)” value amounted to 97.2039. In addition, the “Replicate_1 (LOPAC screen with protease)” value under setting [4] was found to be 99.2109. The “Replicate_2 (LOPAC screen with protease)” value under setting [5] came out at 95.1969.
Turning to `CCCN1CCc2cccc3c2[C@H]1Cc1ccc(O)c(O)c1-3.Cl` [R(-)-Propylnorapomorphine hydrochloride], under setting [3], the “mean (LOPAC screen with protease)” value turned out to be 100.867. Also, the “Replicate_1 (LOPAC screen with protease)” value under setting [4] was determined as 101.086. Further, the “Replicate_2 (LOPAC screen with protease)” value under setting [5] is given as 100.647.
For the molecule `COc1ccc2c(c1O)-c1cccc3c1[C@@H](C2)N(C)CC3` [R(−)-apocodeine, reference compound], under “5 µM”, the “inhibition of 3CLpro in the primary screen” value turned out to be 6%.
In the case of `Br.CCCN(CCC)[C@@H]1CCc2ccc(O)cc2C1` [R-(+)-7-Hydroxy-DPAT hydrobromide], under setting [6], the mean is on record as 2.2447. Further, the Replicate_1 under setting [7] stood at 2.253. Also, under setting [8], the Replicate_2 stood at 2.237.
In the case of `Br.CCCN(CCC)[C@@H]1CCc2cccc(O)c2C1` [R-(+)-8-Hydroxy-DPAT hydrobromide], under setting [9], the mean was -0.6201. Also, the Replicate_1 under setting [10] was determined as 2.2019. For the same molecule, under setting [11], the Replicate_2 is on record as -3.442.
`C#CCN[C@H](C)Cc1ccccc1.Cl` [R-(-)-Desmethyldeprenyl hydrochloride]: the “Replicate_1 (LOPAC_screen_w_protease)” value is listed as 3.419, the “Replicate_2 (LOPAC_screen_w_protease)” value was found to be 0.5348 and the “mean (LOPAC_screen_w_protease)” value is 1.9771.
For `CCCCCC(O)c1cccc(OCc2ccc3ccccc3n2)c1` (stereo not drawn) [REV 5901], the inhibition at 5 µM by setting is: under setting [12], 0.337%; under setting [13], 0.269%; under setting [14], 0.406%.
Under setting [9], `COC1(C2=NCCN2)COc2ccccc2O1.Cl` (stereo not drawn) [RX 821002 hydrochloride] yielded a mean of 0.0583. Moreover, under setting [10], the Replicate_1 is given as -1.138. The molecule also returned a Replicate_2 under setting [11] of 1.255.
As for `CNC(=C[N+](=O)[O-])NCCSCc1ccc(CN(C)C)o1` [Ranitidine hydrochloride], the inhibition at 5 µM by setting is: under setting [15], 2.07%; under setting [16], 1.3%.
For the molecule `COc1ccccc1OCC(O)CN1CCN(CC(=O)Nc2c(C)cccc2C)CC1` (stereo not drawn) [Ranolazine dihydrochloride], the inhibition at 5 µM by setting is: under setting [17], 0.975%; under setting [18], 1.18%; under setting [19], 0.768%.
As to `COC(=O)[C@H]1[C@H]2C[C@H]3c4[nH]c5ccccc5c4CCN3C[C@H]2CC[C@@H]1O` [Rauwolscine hydrochloride], the inhibition at 5 µM was 3.1% (sheet LOPAC_screen_w_protease, primary screen with protease, compound at 5 µM, mean of two replicates, read-out: mean); 3.55% (sheet LOPAC_screen_w_protease, primary screen with protease, compound at 5 µM, replicate 1, read-out: Replicate_1); 2.65% (sheet LOPAC_screen_w_protease, primary screen with protease, compound at 5 µM, replicate 2, read-out: Replicate_2).
Take `Nc1c(S(=O)(=O)O)cc(Nc2ccc(Nc3nc(Cl)nc(Nc4cccc(S(=O)(=O)O)c4)n3)c(S(=O)(=O)O)c2)c2c1C(=O)c1ccccc1C2=O` [Reactive Blue 2]: the inhibition at 5 µM reads like this: under setting [20], 0.827%; under setting [21], -0.139%; under setting [22], 1.79%.
Consider `COC(=O)[C@H]1[C@H]2C[C@@H]3c4[nH]c5cc(OC)ccc5c4CCN3C[C@H]2C[C@@H](OC(=O)c2cc(OC)c(OC)c(OC)c2)[C@@H]1OC` [Reserpine], for which the inhibition at 5 µM runs as follows: under setting [15], 2.93%; under setting [16], 0.694%.
Consider `Oc1ccc(/C=C/c2cc(O)cc(O)c2)cc1` [Resveratrol], for which the inhibition at 5 µM (read-out: Replicate_2) is -6.92%.
In turn, `CC1=C(/C=C/C(C)=C/C=C/C(C)=C/C(=O)Nc2ccc(O)cc2)C(C)(C)CCC1` [Retinoic acid p-hydroxyanilide] registered a mean under setting [6] of 2.295. The molecule further came in with a Replicate_1 under setting [7] of 3.365. This molecule yielded a Replicate_2 under setting [8] of 1.2239.
Turning to `C1COC(NC(C2CC2)C2CC2)=N1` [Rilmenidine hemifumarate], the inhibition at 5 µM runs as follows: under setting [23], 4.65%; under setting [24], -0.41%. Also, the “mean (LOPAC_screen_w_protease)” value under setting [25] was found to be 2.121.
As for `Nc1nc2ccc(OC(F)(F)F)cc2s1` [Riluzole], the inhibition at 5 µM reads like this: under setting [23], 2.44%; under setting [24], 0.68%. Under setting [26], the “mean (LOPAC_screen_w_protease)” value came out at 1.558.
For the molecule `Cc1nc2n(c(=O)c1CCN1CCC(c3noc4cc(F)ccc34)CC1)CCCC2` [Risperidone], the inhibition at 5 µM runs as follows: under setting [17], 0.962%; under setting [18], 1.3%; under setting [19], 0.627%.
Consider `Cc1nc2sccn2c(=O)c1CCN1CCC(=C(c2ccc(F)cc2)c2ccc(F)cc2)CC1` [Ritanserin], for which the inhibition at 5 µM is, setting by setting: under setting [23], 2.24%; under setting [24], 0.502%. Moreover, the “mean (LOPAC_screen_w_protease)” value under setting [26] was determined as 1.373.
In the case of `CC(NCCc1ccc(O)cc1)C(O)c1ccc(O)cc1` (stereo not drawn) [Ritodrine hydrochloride], the inhibition at 5 µM by setting is: under setting [12], -0.392%; under setting [13], -0.659%; under setting [14], -0.126%.
Regarding `CNc1cc(NS(=O)(=O)c2ccc(N)cc2)nc(NC)n1.Cl.Cl` [Ro 04-6790 dihydrochloride], the mean (sheet LOPAC_screen_w_protease, LOPAC1280 at 5 µM, mean of two replicates) was found to be 0.9819. Moreover, where the note is “sheet LOPAC_screen_w_protease, LOPAC1280 at 5 µM, replicate 1”, the Replicate_1 was -0.4861. For the setting “sheet LOPAC_screen_w_protease, LOPAC1280 at 5 µM, replicate 2”, this molecule had a Replicate_2 of 2.45.
With `Cl.NCCNC(=O)c1ccc(Cl)cc1` [Ro 16-6491 hydrochloride], the mean under setting [9] is -0.0598. This molecule came in with a Replicate_1 under setting [10] of 0.2844. Under setting [11], this molecule returned a Replicate_2 of -0.404.
Turning to `CCCCOc1cc(CC2CNC(=O)N2)ccc1OC` (stereo not drawn) [Ro 20-1724], under setting [25], the “mean (LOPAC_screen_w_protease)” value stood at 1.901. Moreover, the “Replicate_1 (LOPAC_screen_w_protease)” value (LOPAC1280 primary screen with protease, 5 µM compound, replicate 1) is given as 0.9131. Also, the “Replicate_2 (LOPAC_screen_w_protease)” value (LOPAC1280 primary screen with protease, 5 µM compound, replicate 2) came out at 2.888.
For the setting “sheet LOPAC_screen_w_protease, LOPAC1280 primary screen at 5 µM, with protease, mean of two replicates”, `O=C(c1cc(O)c(O)c([N+](=O)[O-])c1)c1ccccc1F` [Ro 41-0960] came in with a mean of -0.9763. In addition, under setting [1], the Replicate_1 is -1.184. Besides, under setting [2], the Replicate_2 is recorded as -0.7687.
Consider `Cl.NCCNC(=O)c1ncsc1-c1cccc(F)c1` [Ro 41-1049 hydrochloride], for which the mean under setting [9] is listed as -0.1611. The molecule also had a Replicate_1 under setting [10] of 1.896. Besides, the Replicate_2 under setting [11] is listed as -2.218.
For the molecule `COc1ccc(C2CNC(=O)C2)cc1OC1CCCC1` (stereo not drawn) [Rolipram], the inhibition at 5 µM under setting [12] is -0.575%, the inhibition at 5 µM under setting [13] is -0.0105% and the inhibition at 5 µM under setting [14] is -1.14%.
`CC[C@H](CO)Nc1nc(NCc2ccccc2)c2ncn(C(C)C)c2n1` [Roscovitine]: the “mean (LOPAC_screen_w_protease)” value is 1.3343. Also, the inhibition at 5 µM under setting [15] worked out at 3.12%. Under setting [16], the inhibition at 5 µM was -0.448%.
With `C=C(C)[C@H]1Cc2c(ccc3c2O[C@@H]2COc4cc(OC)c(OC)cc4[C@@H]2C3=O)O1` [Rotenone], the inhibition at 5 µM by setting is: under setting [20], 0.71%; under setting [21], 2.43%; under setting [22], -1.01%.
`CC(=O)c1c(O)c(C)c(O)c(Cc2c(O)c3c(c(C(=O)/C=C/c4ccccc4)c2O)OC(C)(C)C=C3)c1O` [Rottlerin]: the inhibition at 5 µM amounted to 4.21% (read-out: Replicate_1), 5.11% (read-out: Replicate_2) and 4.66% (read-out: mean).
`CCN(CC)CC.Nc1ncnc2c1ncn2C1OC2COP(O)(=S)O[C@@H]2[C@@H]1O` (stereo partly drawn) [Rp-cAMPS triethylamine] registered a Replicate_1 of 2.931, a Replicate_2 of 3.042 and a mean of 2.9867.
With `O=c1c2ccccc2nc2n1CCc1c-2[nH]c2ccccc12` [Rutaecarpine], the inhibition at 5 µM by setting is: under setting [20], 0.598%; under setting [21], 1.54%; under setting [22], -0.348%.
